Results on 23 compounds are retold here after patent US20250026766A1, “Thiazolopyridyl Amide Derivatives as DNA Polymerase Theta Inhibitors” (BeiGene, Ltd., priority 2022, published 2025).

The target of the assay is Pol Theta (1-894) (Homo sapiens (Human), UniProt O75417). Put plainly: Biochemical Pol Theta (1-894) ATPase IC50 assay (ADP-Glo, ssDNA substrate). The note with it: ADP-Glo assay with ssDNA substrate, room temperature. A digest of the protocol: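 His-tagged human Pol Theta 1-894 from Sf9 baculovirus cells, 2× enzyme solution at 12.5 nM, assayed with ssDNA substrate at room temperature in 40 mM Tris pH 7.5, 20 mM MgCl2, 1 mM DTT, 0.01% BSA, 0.05% Tween-20.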
Pol Theta (1-894), sequence (O75417 1-894): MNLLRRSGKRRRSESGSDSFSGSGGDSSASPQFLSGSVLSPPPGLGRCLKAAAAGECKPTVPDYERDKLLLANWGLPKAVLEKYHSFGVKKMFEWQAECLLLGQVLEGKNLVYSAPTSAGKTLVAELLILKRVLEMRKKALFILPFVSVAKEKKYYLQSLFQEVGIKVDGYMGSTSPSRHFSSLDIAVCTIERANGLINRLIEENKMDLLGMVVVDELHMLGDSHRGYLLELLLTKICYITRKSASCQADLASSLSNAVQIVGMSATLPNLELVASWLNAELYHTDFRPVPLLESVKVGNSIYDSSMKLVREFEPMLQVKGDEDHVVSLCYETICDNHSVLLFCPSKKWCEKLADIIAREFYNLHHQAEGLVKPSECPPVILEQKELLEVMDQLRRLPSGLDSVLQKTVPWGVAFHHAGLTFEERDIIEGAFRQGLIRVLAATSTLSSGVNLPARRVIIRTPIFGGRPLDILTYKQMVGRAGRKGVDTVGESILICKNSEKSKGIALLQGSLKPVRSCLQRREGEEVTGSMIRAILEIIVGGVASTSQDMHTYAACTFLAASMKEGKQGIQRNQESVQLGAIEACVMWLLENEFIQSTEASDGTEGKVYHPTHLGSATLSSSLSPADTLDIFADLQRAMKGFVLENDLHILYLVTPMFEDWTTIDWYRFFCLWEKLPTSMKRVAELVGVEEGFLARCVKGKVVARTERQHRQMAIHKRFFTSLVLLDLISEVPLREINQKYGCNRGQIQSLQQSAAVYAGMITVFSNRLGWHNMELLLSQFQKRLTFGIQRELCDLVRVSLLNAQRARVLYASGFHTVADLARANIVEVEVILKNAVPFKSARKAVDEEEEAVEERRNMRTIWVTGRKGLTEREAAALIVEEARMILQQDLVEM
Regarding `Cc1cc(-c2ccc(=O)n(C)c2C)c(C(=O)Nc2nc3ccc(-c4ccc(C#N)cc4)nc3s2)cn1` [Example 120, N-(5-(4-cyanophenyl)thiazolo[5,4-b]pyridin-2-yl)-1,2,6′-trimethyl-6-oxo-1,6-dihydro-[3,4′-bipyridine]-3′-carboxamide], the IC50 turned out to be 7.9 nM. `COc1ccccc1-c1cnncc1C(=O)Nc1nc2ccc(-c3ccc(C#N)cc3C)nc2s1` [Example 121, N-(5-(4-cyano-2-methylphenyl)thiazolo[5,4-b]pyridin-2-yl)-5-(2-methoxyphenyl)pyridazine-4-carboxamide] registered an IC50 of 4.9 nM. Regarding `COc1ccc(C#N)cc1-c1cc(C)ncc1C(=O)Nc1nc2ccc(-c3ccc(OCCO)cc3)nc2s1` [Example 122, 4-(5-cyano-2-methoxyphenyl)-N-(5-(4-(2-hydroxyethoxy)phenyl)thiazolo[5,4-b]pyridin-2-yl)-6-methylnicotinamide], 14 nM corresponded to half-maximal inhibition (IC50). Compared with the last compound, the IC50 is about 2.9-fold higher.

In turn, `COCCOc1ccc(-c2ccc3nc(NC(=O)c4cnc(C)cc4-c4cc(C#N)ccc4OC)sc3n2)cc1` [Example 123, 4-(5-cyano-2-methoxyphenyl)-N-(5-(4-(2-methoxyethoxy)phenyl)thiazolo[5,4-b]pyridin-2-yl)-6-methylnicotinamide] gave an IC50 of 27 nM.

`COc1ccccc1-c1cnncc1C(=O)Nc1nc2ccc(C(=O)N3CCOCC3)nc2s1` [Example 124, 5-(2-methoxyphenyl)-N-(5-(morpholine-4-carbonyl)thiazolo[5,4-b]pyridin-2-yl)pyridazine-4-carboxamide] gave an IC50 of 44 nM. `COc1ccccc1-c1cnncc1C(=O)Nc1nc2ccc(-c3ccc(Cl)c4c3cnn4C)nc2s1` [Example 125, N-(5-(7-chloro-1-methyl-1H-indazol-4-yl)thiazolo[5,4-b]pyridin-2-yl)-5-(2-methoxyphenyl)pyridazine-4-carboxamide] returned an IC50 of 25 nM. `COc1ccccc1-c1cnncc1C(=O)Nc1nc2ccc(-c3ccc(Cl)c4nn(C)cc34)nc2s1` [Example 126, N-(5-(7-chloro-2-methyl-2H-indazol-4-yl)thiazolo[5,4-b]pyridin-2-yl)-5-(2-methoxyphenyl)pyridazine-4-carboxamide] had an IC50 of 12 nM.

`COc1ccc(C#N)cc1-c1cc(C)ncc1C(=O)Nc1nc2ccc(C3CCOC3)nc2s1` (centres unmarked) [Example 127, 4-(5-cyano-2-methoxyphenyl)-6-methyl-N-(5-(tetrahydrofuran-3-yl)thiazolo[5,4-b]pyridin-2-yl)nicotinamide] returned an IC50 of 35 nM.

Regarding `COc1ccccc1-c1cnncc1C(=O)Nc1nc2ccc(-c3ccc(C#N)cc3F)nc2s1` [Example 128, N-(5-(4-cyano-2-fluorophenyl)thiazolo[5,4-b]pyridin-2-yl)-5-(2-methoxyphenyl)pyridazine-4-carboxamide], the midpoint of inhibition, the IC50, lay at 8.1 nM. In turn, `COc1ccccc1-c1cnncc1C(=O)Nc1nc2ccc(Oc3ccc(Cl)c(C)c3)nc2s1` [Example 129, N-(5-(4-chloro-3-methylphenoxy)thiazolo[5,4-b]pyridin-2-yl)-5-(2-methoxyphenyl)pyridazine-4-carboxamide] showed an IC50 of 23 nM. Turning to `COc1ccccc1-c1cnncc1C(=O)Nc1nc2ccc(Oc3ccc(Cl)c(F)c3)nc2s1` [Example 130, N-(5-(4-chloro-3-fluorophenoxy)thiazolo[5,4-b]pyridin-2-yl)-5-(2-methoxyphenyl)pyridazine-4-carboxamide], inhibition was half-maximal at 35 nM (IC50). Compared with the last compound, the IC50 is about 1.5-fold higher. For `COc1cc(Oc2ccc3nc(NC(=O)c4cnncc4-c4ccccc4OC)sc3n2)ccc1Cl` [Example 131, N-(5-(4-chloro-3-methoxyphenoxy)thiazolo[5,4-b]pyridin-2-yl)-5-(2-methoxyphenyl)pyridazine-4-carboxamide], the IC50 amounted to 14 nM. This IC50 is about 2.5-fold lower than that of the compound before.

As for `CCNC(=O)c1ccc(-c2ccc3nc(NC(=O)c4cnncc4-c4ccccc4OC)sc3n2)c(C)c1` [Example 132, N-(5-(4-(ethylcarbamoyl)-2-methylphenyl)thiazolo[5,4-b]pyridin-2-yl)-5-(2-methoxyphenyl)pyridazine-4-carboxamide], the IC50 was 12 nM. This IC50 and that of the compound before are within 1.5-fold of each other.

As for `COc1ccccc1-c1cnncc1C(=O)Nc1nc2ccc(-c3ccc(S(C)(=O)=O)cc3F)nc2s1` [Example 133, N-(5-(2-fluoro-4-(methylsulfonyl)phenyl)thiazolo[5,4-b]pyridin-2-yl)-5-(2-methoxyphenyl)pyridazine-4-carboxamide], the half-inhibitory concentration (IC50) was 11 nM. To `CNC(=O)c1ccc(-c2ccc3nc(NC(=O)c4cnncc4-c4ccccc4OC)sc3n2)c(C)c1` [Example 134, 5-(2-methoxyphenyl)-N-(5-(2-methyl-4-(methylcarbamoyl)phenyl)thiazolo[5,4-b]pyridin-2-yl)pyridazine-4-carboxamide] belongs 15 nM; to `COc1ccc(C#N)cc1-c1cc(C)ncc1C(=O)Nc1nc2ccc(-c3ccc(N4CCCS4(=O)=O)cc3)nc2s1` [Example 135, 4-(5-cyano-2-methoxyphenyl)-N-(5-(4-(1,1-dioxidoisothiazolidin-2-yl)phenyl)thiazolo[5,4-b]pyridin-2-yl)-6-methylnicotinamide], 23 nM; to `COc1ccc(C#N)cc1-c1cc(C)ncc1C(=O)Nc1nc2ccc(-c3ccc(N(CCO)S(C)(=O)=O)cc3)nc2s1` [Example 136, 4-(5-cyano-2-methoxyphenyl)-N-(5-(4-(N-(2-hydroxyethyl)methylsulfonamido)phenyl)thiazolo[5,4-b]pyridin-2-yl)-6-methylnicotinamide], 41 nM. For `COc1ccccc1-c1cnncc1C(=O)Nc1nc2ccc(C(=O)c3ccc(Cl)cc3)nc2s1` [Example 137, N-(5-(4-chlorobenzoyl)thiazolo[5,4-b]pyridin-2-yl)-5-(2-methoxyphenyl)pyridazine-4-carboxamide], the IC50 was 54 nM. The compound `COc1ccccc1-c1cnncc1C(=O)Nc1nc2ccc(C(C)c3ccc(Cl)cc3)nc2s1` (centres unmarked) [Example 138, N-(5-(1-(4-chlorophenyl)ethyl)thiazolo[5,4-b]pyridin-2-yl)-5-(2-methoxyphenyl)pyridazine-4-carboxamide] displayed an IC50 of 263 nM. This IC50 lies about 4.9-fold higher than the previous one.

`COc1ccccc1-c1cnncc1C(=O)Nc1nc2ccc(-c3ccc(Cl)c(C)c3C)nc2s1` [Example 139, N-(5-(4-chloro-2,3-dimethylphenyl)thiazolo[5,4-b]pyridin-2-yl)-5-(2-methoxyphenyl)pyridazine-4-carboxamide]: the IC50 was 21 nM. For `COc1ccccc1-c1cnncc1C(=O)Nc1nc2ccc(-c3cc(C)c(NC(C)=O)c(C)c3)nc2s1` [Example 140, N-(5-(4-acetamido-3,5-dimethylphenyl)thiazolo[5,4-b]pyridin-2-yl)-5-(2-methoxyphenyl)pyridazine-4-carboxamide], the midpoint of inhibition, the IC50, lay at 7.7 nM. On to `COc1ccccc1-c1cnncc1C(=O)Nc1nc2ccc(-c3cc(C)c(NC(C)=O)cc3C)nc2s1` [Example 141, N-(5-(4-acetamido-2,5-dimethylphenyl)thiazolo[5,4-b]pyridin-2-yl)-5-(2-methoxyphenyl)pyridazine-4-carboxamide], for which the IC50 was found to be 3.1 nM. With `COc1ccccc1-c1cnncc1C(=O)Nc1nc2ccc(-c3ccc(NC(C)=O)c(F)c3)nc2s1` [Example 142, N-(5-(4-acetamido-3-fluorophenyl)thiazolo[5,4-b]pyridin-2-yl)-5-(2-methoxyphenyl)pyridazine-4-carboxamide], 5.4 nM corresponded to half-maximal inhibition (IC50).
